Target: human plasma kallikrein (Homo sapiens, UniProt P03952)
Experiment: Kallikrein inhibition FLINT assay with quenched AMC peptide substrate Z-Gly-Pro-Arg-AMC (end point EP or kinetic KIN reads)
Type: biochemical
Settings: kinetic reads at 5 min intervals over 30 min; read-out: Kallikrein (KIN) IC50
Summary of the method: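 Enzyme and compound were preincubated 30 min before adding 50 μM AMC substrate in pH 7.5 Tris/NaCl/CaCl2/BSA/CHAPS buffer. AMC release was read at 30 min endpoint or every 5 min.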

Sequence of human plasma kallikrein (P03952 391-638 limits assumed): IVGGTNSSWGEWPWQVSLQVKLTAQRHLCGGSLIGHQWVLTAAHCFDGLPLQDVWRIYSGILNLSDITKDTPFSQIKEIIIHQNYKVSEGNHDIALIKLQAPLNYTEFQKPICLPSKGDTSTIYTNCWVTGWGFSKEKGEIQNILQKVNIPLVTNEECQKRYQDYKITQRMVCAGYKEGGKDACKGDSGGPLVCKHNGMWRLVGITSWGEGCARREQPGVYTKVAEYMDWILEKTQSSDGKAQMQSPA
Sequence of human plasma kallikrein (P03952 20-390 partner limits assumed): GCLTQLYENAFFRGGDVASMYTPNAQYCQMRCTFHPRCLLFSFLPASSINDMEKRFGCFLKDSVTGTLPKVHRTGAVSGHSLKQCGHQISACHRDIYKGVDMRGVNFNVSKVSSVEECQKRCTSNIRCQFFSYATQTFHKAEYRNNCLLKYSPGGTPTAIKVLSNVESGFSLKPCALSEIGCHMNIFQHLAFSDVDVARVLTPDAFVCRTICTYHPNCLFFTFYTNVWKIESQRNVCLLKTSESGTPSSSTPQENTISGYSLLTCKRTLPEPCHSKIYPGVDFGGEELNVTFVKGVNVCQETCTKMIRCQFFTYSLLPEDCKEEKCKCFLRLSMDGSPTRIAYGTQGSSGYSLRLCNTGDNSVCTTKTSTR

IC50 [nM] | SMILES
3.3 | Nc1ccc(-c2cnn(C(Cn3cc(F)cn3)c3ccc(-c4c(-n5cnnn5)ccc(Cl)c4F)c[n+]3[O-])c2)c(F)n1 (single isomer, unassigned) [Example P416]
5.6 | [O-][n+]1cc(-c2c(-n3cnnn3)ccc(Cl)c2F)ccc1[C@@H](CCOC(F)F)n1cc(-c2ccnn2C(F)F)cn1 [Example P564]
630 | [O-][n+]1cc(-c2c(-n3cnnn3)ccc(Cl)c2F)ccc1C(CC1CC1)n1cc(-c2cnsc2)cn1 (centres unmarked) [Example P456]
188 | Cc1cc(-c2cnn(C(Cn3cc(F)cn3)c3ccc(-c4c(-n5cnnn5)ccc(Cl)c4F)c[n+]3[O-])c2)cc(C)[n+]1[O-] (centres unmarked) [Example P477]
70.4 | NC(=O)c1ccc(-c2cnn(C(Cc3ccn(C(F)F)n3)c3ccc(-c4c(-n5cc(C(F)(F)F)nn5)ccc(Cl)c4F)c[n+]3[O-])c2)cc1 (single isomer, unassigned) [Example P907]
45.7 | COC(=O)Nc1ccc(-c2cnn(C(CC3CCC3)c3ccc(-c4c(-n5cnnn5)ccc(Cl)c4F)c[n+]3[O-])c2)cc1 (centres unmarked) [Example P109]
22.1 | [O-][n+]1cc(-c2c(-n3cnnn3)ccc(Cl)c2F)ccc1C(C(O)c1ccccc1)n1cc(-c2ccnn2C(F)F)cn1 (single isomer, unassigned) [Example P716]
377 | COC(=O)Nc1ccc(-c2cnn(C(CC3CC3C(=O)N3CCCC(c4ccccc4)C3)c3ccc(-c4c(-n5cnnn5)ccc(Cl)c4F)c[n+]3[O-])c2)cc1 (centres unmarked) [Example P221]
56 | CNc1ncc(-c2cnn([C@H](CCOC(F)F)c3ccc(-c4c(-n5cnnn5)ccc(Cl)c4F)c[n+]3[O-])c2)cn1 [Example P552]
159 | O=C(C1CC1CC(c1ccc(-c2c(-n3cnnn3)ccc(Cl)c2F)c[n+]1[O-])n1cc(-c2ccncc2)cn1)N1CCC(c2ccccc2)C1 (centres unmarked) [Example P253]
36.6 | CC(C)c1cc(-c2cnn(C(Cn3cc(F)cn3)c3ccc(-c4c(-n5cnnn5)ccc(Cl)c4F)c[n+]3[O-])c2)ccn1 (centres unmarked) [Example P393]
649 | COC(=O)N1CCCC(c2cnn(C(CC3CC3)c3ccc(-c4c(-n5cnnn5)ccc(Cl)c4F)c[n+]3[O-])c2)C1 (centres unmarked) [Example P108]
57.9 | COCc1ccnn1CC(c1ccc(-c2c(-n3cnnn3)ccc(Cl)c2F)c[n+]1[O-])n1cc(-c2ccc(N)nc2F)cn1 (centres unmarked) [Example P489]
6.5 | NC(=O)c1ccc(-c2cnn(C(Cc3ccn(C(F)F)n3)c3ccc(-c4c(-n5cc(C(F)(F)F)nn5)ccc(Cl)c4F)c[n+]3[O-])c2)cc1F (single isomer, unassigned) [Example P906]
818 | Cn1cc(C[C@@H](c2ccc(-c3c(-n4cnnn4)ccc(Cl)c3F)c[n+]2[O-])n2cc(-c3ccnc(C(F)(F)F)c3)cn2)nn1 [Example P737]
8.1 | [O-][n+]1cc(-c2c(-n3cnnn3)ccc(Cl)c2F)ccc1C(Cn1cc(F)cn1)n1cc(-c2ccncc2)cn1 (centres unmarked) [Example P276]
79.8 | O=C(NC1CC1)c1ccc(-c2cnn(C(Cc3ccc(-c4ccccc4)cc3)c3ccc(-c4cc(Cl)ccc4-n4cnnn4)c[n+]3[O-])c2)cc1 (centres unmarked) [Example P87]
4 | [O-][n+]1cc(-c2c(-n3cnnn3)ccc(Cl)c2F)ccc1[C@@H](Cc1ccc(F)cc1)n1cc(-c2cnnn2C(F)F)cn1 [Example P599]
26.2 | Cn1ncc(O)c1-c1cnn(C(CCOC(F)F)c2ccc(-c3c(-n4cc(Cl)nn4)ccc(Cl)c3F)c[n+]2[O-])c1 (centres unmarked) [Example P747]
41.4 | Cn1ncnc1-c1cnn(C(CC2CC2)c2ccc(-c3c(-n4cc(C(F)(F)F)nn4)ccc(Cl)c3F)c[n+]2[O-])c1 (centres unmarked) [Example P874]
50.5 | [O-][n+]1cc(-c2c(-n3cc(Cl)nn3)ccc(Cl)c2F)ccc1[C@@H](Cn1cc(F)cn1)n1cc(-c2ccnn2C(F)F)cn1 [Example P643]
5290 | COCC[C@@H](c1ccc(-c2c(-n3cnnn3)ccc(Cl)c2F)c[n+]1[O-])n1cc(-c2cc(C(F)(F)F)nn2C)cn1 [Example P620]
259 | [O-][n+]1cc(-c2c(C(F)F)ccc(Cl)c2F)ccc1C(CCOC(F)F)n1cc(-c2ccnc(C(F)(F)F)n2)cn1 (centres unmarked) [Example Q29]
